Test [1] deals with isolated Drosophila brains.
Test [2] deals with T1, mouse TRPA1 (mTRPA1) (Mus musculus, UniProt Q8BLA8).
T1 construct: expressed in transfected cells; host or cells: HEK293
Put plainly: Intracellular Ca2+ imaging (Fluo-4) in HEK293 cells expressing mTRPA1. Type of test: cell-based. Conditions: H2O2 10 μM, BITC 100 μM added at end of experiment. The method, then:
(§1) (FIG. 1A) Cells expressing either dTRPA1, mTRPA1, or mCherry were Xray irradiated (0.5 nGy/cm^2/sec) for 60 sec while monitoring changes in intracellular Ca^2+. BITC (100 μM) was added at the end of the experiments to confirm TRPA1 expression. […] (FIG. 1B) As in (FIG. 1A), except cells were stimulated with H2O2 (10 μM) administration. […] One-way ANOVA with Tukey's multiple comparisons test.
(§2) The Xrs source (FIG. 3A) was mounted to a Zeiss 710 LSM confocal imaging system. Changes in intracellular Ca^2+ were detected using a Fluo-4 Direct™ calcium assay kit. Fluo-4 epifluorescence changes were computed as (Fi-Fo; ΔF)/Fo, where Fi, is the fluorescence intensity at any frame and F0, is the resting fluorescence. F0 was calculated as the averaged fluorescence of the first 3 frames before stimulation.

For test [3], the target named is T2, dTRPA1(A)10b (Drosophila melanogaster, UniProt Q7Z020).
T2 construct: expressed in transfected cells; host or cells: HEK293
T2 sequence (Q7Z020 with tags, fused parts or gaps isoform Q7Z020-5): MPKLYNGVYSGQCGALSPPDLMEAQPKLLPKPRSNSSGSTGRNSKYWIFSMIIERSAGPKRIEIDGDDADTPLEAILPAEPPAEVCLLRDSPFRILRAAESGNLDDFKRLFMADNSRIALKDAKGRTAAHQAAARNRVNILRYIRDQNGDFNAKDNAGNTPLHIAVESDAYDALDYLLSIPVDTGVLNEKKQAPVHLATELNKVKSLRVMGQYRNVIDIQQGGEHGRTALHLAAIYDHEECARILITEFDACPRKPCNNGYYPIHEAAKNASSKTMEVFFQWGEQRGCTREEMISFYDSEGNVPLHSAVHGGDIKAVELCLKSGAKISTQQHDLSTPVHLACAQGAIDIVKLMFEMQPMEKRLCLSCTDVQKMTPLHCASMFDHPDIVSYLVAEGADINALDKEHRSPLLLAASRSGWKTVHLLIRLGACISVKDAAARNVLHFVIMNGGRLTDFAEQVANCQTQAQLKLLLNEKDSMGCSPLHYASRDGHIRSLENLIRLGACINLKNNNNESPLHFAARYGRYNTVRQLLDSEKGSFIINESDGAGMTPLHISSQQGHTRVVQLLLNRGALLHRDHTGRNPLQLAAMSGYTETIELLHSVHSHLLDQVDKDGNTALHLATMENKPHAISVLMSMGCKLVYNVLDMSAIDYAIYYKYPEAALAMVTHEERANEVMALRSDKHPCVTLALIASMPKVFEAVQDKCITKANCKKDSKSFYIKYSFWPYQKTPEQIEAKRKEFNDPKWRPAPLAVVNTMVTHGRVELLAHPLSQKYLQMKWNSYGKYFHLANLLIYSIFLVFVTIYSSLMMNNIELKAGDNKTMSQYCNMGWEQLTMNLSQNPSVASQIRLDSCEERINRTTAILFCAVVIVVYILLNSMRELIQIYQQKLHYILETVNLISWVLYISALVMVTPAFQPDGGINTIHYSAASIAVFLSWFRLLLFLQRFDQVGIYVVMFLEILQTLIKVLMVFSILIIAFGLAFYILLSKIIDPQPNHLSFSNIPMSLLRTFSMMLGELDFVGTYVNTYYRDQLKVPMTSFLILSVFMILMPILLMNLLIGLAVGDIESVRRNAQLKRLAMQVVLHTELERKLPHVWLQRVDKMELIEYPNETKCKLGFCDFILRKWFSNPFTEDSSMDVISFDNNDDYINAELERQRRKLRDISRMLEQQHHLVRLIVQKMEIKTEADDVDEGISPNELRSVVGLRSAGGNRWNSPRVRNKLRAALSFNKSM
Type of test: cell-based. Conditions: for change in intracellular Ca2+ on agonist administration: HEK293 cells expressing dTRPA1(A)10b, H2O2 10 μM, BITC 100 μM added at end of experiment. The method, then:
as §1, §2

For test [4], the system named is HEK293 cells expressing mCherry. Kind of test: Intracellular Ca2+ imaging (Fluo-4) in HEK293 cells expressing mCherry control. It counts as cell-based, human. Conditions: HEK293 cells expressing mCherry only; H2O2 10 μM; BITC 100 μM added at end of experiment. The procedure: as §1, §2
In test [5] the test system is isolated Drosophila brains. The following applies: brains perfused with 200 μM H2O2; electrode in vs out of brain p<0.0042; n=3.
In test [6] the test system is Drosophila. The following applies: flies fed food containing H2O2 (1%) for 5 hours vs vehicle; 1 hour acclimation; p<0.03; n=29-30.

Where two headings read alike, the source gives them in different places.

T1 sequence (Q8BLA8 whole entry): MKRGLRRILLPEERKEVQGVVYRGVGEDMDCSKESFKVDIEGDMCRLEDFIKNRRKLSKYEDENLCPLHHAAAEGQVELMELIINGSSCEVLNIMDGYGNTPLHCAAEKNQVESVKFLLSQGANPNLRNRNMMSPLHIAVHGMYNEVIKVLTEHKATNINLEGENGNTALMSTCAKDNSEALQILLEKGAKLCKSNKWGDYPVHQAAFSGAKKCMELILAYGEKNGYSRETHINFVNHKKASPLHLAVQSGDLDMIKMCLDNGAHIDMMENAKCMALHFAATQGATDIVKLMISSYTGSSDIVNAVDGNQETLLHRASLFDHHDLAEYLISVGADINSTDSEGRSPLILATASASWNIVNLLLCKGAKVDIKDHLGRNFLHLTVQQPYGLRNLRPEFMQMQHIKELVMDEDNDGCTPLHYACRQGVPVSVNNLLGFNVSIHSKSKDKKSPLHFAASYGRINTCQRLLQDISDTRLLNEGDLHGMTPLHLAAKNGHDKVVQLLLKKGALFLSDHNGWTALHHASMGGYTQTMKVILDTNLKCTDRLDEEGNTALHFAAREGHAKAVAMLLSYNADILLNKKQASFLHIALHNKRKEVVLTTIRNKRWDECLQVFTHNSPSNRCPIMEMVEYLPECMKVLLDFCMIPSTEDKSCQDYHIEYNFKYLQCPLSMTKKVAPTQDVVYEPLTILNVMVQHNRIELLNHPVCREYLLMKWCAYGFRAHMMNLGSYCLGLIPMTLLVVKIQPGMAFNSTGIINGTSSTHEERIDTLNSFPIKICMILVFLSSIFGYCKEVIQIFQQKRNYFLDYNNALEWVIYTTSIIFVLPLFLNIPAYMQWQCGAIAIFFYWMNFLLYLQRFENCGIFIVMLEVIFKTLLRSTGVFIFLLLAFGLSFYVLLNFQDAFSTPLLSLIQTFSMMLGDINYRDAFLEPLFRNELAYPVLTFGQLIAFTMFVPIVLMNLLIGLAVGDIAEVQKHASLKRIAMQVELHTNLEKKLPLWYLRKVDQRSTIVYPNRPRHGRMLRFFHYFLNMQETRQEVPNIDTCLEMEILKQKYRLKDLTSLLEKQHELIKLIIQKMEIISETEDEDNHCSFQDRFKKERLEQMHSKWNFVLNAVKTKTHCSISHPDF

In the case of `N[C@@H](Cc1ccc(O)c(I)c1)C(=O)O` [3IY, 3-iodotyrosine], the “effect on Xrs-stimulated DA release (AUC of amperometric signals) after DA depletion” value in test [1] (10 mg/mL orally administered to flies for 24 hr vs vehicle, p<0.013, n=13-15) is “significantly reduces the ability of Xrs to stimulate DA release”.

With `S=C=NCc1ccccc1` [BITC, benzyl isothiocyanate], the entries for the “change in intracellular Ca2+ on agonist administration” value in test [2], in test [3] and in test [4] were “increases intracellular Ca^2+”, “increases intracellular Ca^2+” and “modest increase in Ca^2+”, respectively.

Regarding `OO` [H2O2, hydrogen peroxide], the entries for the “change in intracellular Ca2+ on agonist administration” value in test [2], in test [3] and in test [4] were “not observed”, “promotes an acute increase in intracellular Ca^2+” and “not observed”, respectively. The “DA release (peak amperometric current)” value in test [5] is given as “stimulates DA release”. Moreover, in test [6], the “locomotion (total beam crossings over a 4 hr period)” value is reported as “significantly stimulates locomotion”.

Consider `CC(C)c1ccc(NC(=O)Cn2cnc3c2c(=O)n(C)c(=O)n3C)cc1` [HC-030031], for which the “effect on Xrs-stimulated DA release (AUC of amperometric current)” value in test [1] (Xrs 0.1 Gy/sec for 250 msec, brains incubated 5 min with 1 μM TTX or 100 μM HC-030031 vs control/vehicle) is “inhibits Xrs-stimulated DA release”.

In the case of `NC1=N[C@H](O)[C@H]2[C@H]3O[C@]4(O)O[C@@H]([C@@H](O)[C@@]2(N1)[C@@H]4O)[C@]3(O)CO` [TTX, tetrodotoxin], in test [1], the “effect on Xrs-stimulated DA release (AUC of amperometric current)” value is reported as “robustly inhibits this release”.

For the compound `CC1(C)CC(O)CC(C)(C)N1[O]` [Tempol], in test [3] (Xray irradiation, ROS scavenger present), the “effect on Xray-induced Ca2+ increases” value was “blocked”.

Source of the values: US20250367323A1, “PLATFORM FOR RADIOLYTIC NEUROMODULATION” (THE UAB RESEARCH FOUNDATION, priority 2024, published 2025).
